From paper PMC11996864, “A small-molecule inhibitor of BCL10-MALT1 interaction abrogates progression of diffuse large B cell lymphoma” (The Journal of Clinical Investigation, 2025)
Values joined by “and” are separate entries in the source; they are usually repeats but may differ in a detail not shown here. Equal values may be shown once.

Legend:
BJAB cells = assay: Apoptosis, annexin staining flow cytometry; type: cell-based, human
PDE4 = biological target: T1, PDE4 (Homo sapiens, UniProt Q08499); assay: SAFETYscan78 off-target screen; conditions: off-target panel; read-out: EC50 or IC50, PDE4
T1 construct: Eurofins SAFETYscan78
From the text: (§1) We also tested for possible adverse actions of M1i-124 on cytochrome P450 (CYP) enzymes that might limit its use in vivo. The CYP family of enzymes are responsible for phase I metabolism of many drugs and endogenous substances, and their inhibition can lead to unanticipated toxicities. […] To further test for potential off-target effects of M1i-124, we conducted an in vitro safety pharmacology profiling screen that measures the ability of a candidate compound to inhibit 78 key GPCRs, ion channels, nuclear hormone receptors, neurotransmitter transporters, kinases, and non-kinase enzymes. […]
(§2) cological profile for M1i-124. EC50 or I C50 f or act i vi t y agai nst sel ect GPCRs, i on channel s, nucl ear hor mone r eceptor s, ki nases, and neur otr ansmi tter tr anspor ter s i n an off-target activity screen of M1i-124 (Eurofins SAFETYscan78). When unmeasurable, the EC50 or IC50 for an indicated target is listed as >10 […]
(§3) (1 picture or pasted object on this page, not shown here)

hERG = biological target: T2, hERG (Homo sapiens, UniProt Q12809); assay: SAFETYscan78 off-target screen; conditions: off-target panel; read-out: EC50 or IC50, hERG
T2 construct: Eurofins SAFETYscan78
From the text: as §1, §2, §3

INSR = biological target: T3, INSR (Homo sapiens, UniProt P06213); assay: SAFETYscan78 off-target screen; conditions: off-target panel; read-out: EC50 or IC50, INSR
T3 construct: Eurofins SAFETYscan78
From the text: as §1, §2, §3

COX1/2 = assay: SAFETYscan78 off-target screen; conditions: off-target panel; read-out: EC50 or IC50, COX1/2
From the text: as §1, §2, §3

ROCK1 = biological target: T4, ROCK1 (Homo sapiens, UniProt Q13464); assay: SAFETYscan78 off-target screen; conditions: off-target panel; read-out: EC50 or IC50, ROCK1
T4 construct: Eurofins SAFETYscan78
From the text: as §1, §2, §3

VEGFR2 = biological target: T5, VEGFR2 (Homo sapiens, UniProt P35968); assay: SAFETYscan78 off-target screen; conditions: off-target panel; read-out: EC50 or IC50, VEGFR2
T5 construct: Eurofins SAFETYscan78
From the text: as §1, §2, §3

LCK = biological target: T6, LCK (Homo sapiens, UniProt P06239); assay: SAFETYscan78 off-target screen; conditions: off-target panel; read-out: EC50 or IC50, LCK
T6 construct: Eurofins SAFETYscan78
From the text: as §1, §2, §3

OCI-Ly3 xenografts = assay: OCI-Ly3 xenograft in NSG mice; type: in vivo, mouse; conditions: daily i.p., vs DMSO, result in words
From the text: TMD8 cells were engrafted into 8-week-old female NOD.CB17-Prkdc^scid/J (NOD-SCID) mice from The Jackson Laboratory by subcutaneous injection of 10 × 10^6 cells resuspended in 50% Cultrex Basement Membrane Extract (R&D Systems, catalog 3632-010-02) into the right flank. OCI-Ly3 cells were engrafted into 5-week-old female NOD.Cg-Prkdc^scid Il2rg^tm1Wjl/SzJ (NSG) mice from The Jackson Laboratory by subcutaneous injection of 2.5 × 10^6 cells resuspended in Cultrex as above. OCI-Ly1 cells were engrafted into 6.5-week-old female NSG mice from The Jackson Laboratory by subcutaneous injection of 20 × 10^6 cells resuspended in Cultrex as above. For all xenograft models, when tumors reached an average volume of 100 mm^3, mice were randomized to receive M1i-124 (50 mg/kg i.p. per day), or equivalent volume of DMSO vehicle (50 μL i.p. per day). […] Tumor size was measured 3 times a week using a caliper and calculated using the formula (smallest diameter^2 × largest diameter)/2. Mice were sacrificed 24 hours after the last injection. Mice were sacrificed when the largest tumors reached 2,500 mm^3. For TMD8 xenograft experiments, tumors and various organs, including lung, heart, liver, and kidney, were collected and fixed in 10% buffered formalin, embedded in FFPE blocks, sectioned, and stained with H&E. Sections were evaluated by a board-certified pathologist.

OCI-Ly3 cells = assay: CellTiter-Glo ATP viability; type: cell-based, human
Procedure: Cell proliferation, viability, and apoptosis assays. […]
Fluorescent Intensity (MFI) was analyzed by FlowJo (version 10.8.0, BD). CellTiter-glo luminescence assay (Promega, Cat# G7570) was used to quantify ATP levels as a surrogate marker of metabolic viability in DLBCL cells treated with compounds for 6-8 days. […]
The percentages of cells in early and late apoptosis were combined for quantification. For CellTrace Violet, CellTiter-glo, and Annexin V apoptosis assays, cell were cultured in media with 50% of the usual serum. […]

T5 sequence (P35968 20-1356): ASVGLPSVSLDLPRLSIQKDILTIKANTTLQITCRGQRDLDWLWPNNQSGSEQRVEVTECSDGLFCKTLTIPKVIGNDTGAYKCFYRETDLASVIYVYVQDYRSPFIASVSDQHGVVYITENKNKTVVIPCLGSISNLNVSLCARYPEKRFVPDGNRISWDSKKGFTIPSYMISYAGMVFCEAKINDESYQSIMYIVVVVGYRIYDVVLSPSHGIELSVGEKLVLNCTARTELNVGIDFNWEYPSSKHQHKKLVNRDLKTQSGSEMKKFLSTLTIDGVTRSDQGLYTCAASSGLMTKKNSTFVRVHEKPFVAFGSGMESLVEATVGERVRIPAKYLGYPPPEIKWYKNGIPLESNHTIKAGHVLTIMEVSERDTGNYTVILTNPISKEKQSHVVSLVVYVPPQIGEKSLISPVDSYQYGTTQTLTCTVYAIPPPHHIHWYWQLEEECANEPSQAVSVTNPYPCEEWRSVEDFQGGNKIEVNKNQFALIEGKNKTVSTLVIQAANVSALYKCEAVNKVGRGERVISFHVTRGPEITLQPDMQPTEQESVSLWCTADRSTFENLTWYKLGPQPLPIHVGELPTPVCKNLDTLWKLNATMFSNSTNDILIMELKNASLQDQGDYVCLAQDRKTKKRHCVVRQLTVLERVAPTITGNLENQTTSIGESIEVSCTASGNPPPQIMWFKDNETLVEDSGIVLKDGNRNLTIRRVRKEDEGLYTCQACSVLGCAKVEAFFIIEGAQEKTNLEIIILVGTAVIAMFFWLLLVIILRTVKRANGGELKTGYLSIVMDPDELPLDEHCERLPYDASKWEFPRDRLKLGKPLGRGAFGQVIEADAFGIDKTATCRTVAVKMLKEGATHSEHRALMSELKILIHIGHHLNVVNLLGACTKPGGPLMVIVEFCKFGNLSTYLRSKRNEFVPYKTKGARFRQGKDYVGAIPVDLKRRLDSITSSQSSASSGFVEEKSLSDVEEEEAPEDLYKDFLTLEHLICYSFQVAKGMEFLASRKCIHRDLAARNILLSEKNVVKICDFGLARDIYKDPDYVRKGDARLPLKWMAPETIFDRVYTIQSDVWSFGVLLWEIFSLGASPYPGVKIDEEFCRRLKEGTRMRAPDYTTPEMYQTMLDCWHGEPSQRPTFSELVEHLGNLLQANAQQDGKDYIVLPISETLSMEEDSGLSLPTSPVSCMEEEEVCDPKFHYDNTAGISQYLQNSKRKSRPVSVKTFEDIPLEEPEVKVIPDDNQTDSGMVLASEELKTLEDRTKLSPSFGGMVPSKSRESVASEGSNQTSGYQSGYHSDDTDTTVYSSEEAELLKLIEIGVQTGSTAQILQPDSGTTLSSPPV
T4 sequence (Q13464 whole entry): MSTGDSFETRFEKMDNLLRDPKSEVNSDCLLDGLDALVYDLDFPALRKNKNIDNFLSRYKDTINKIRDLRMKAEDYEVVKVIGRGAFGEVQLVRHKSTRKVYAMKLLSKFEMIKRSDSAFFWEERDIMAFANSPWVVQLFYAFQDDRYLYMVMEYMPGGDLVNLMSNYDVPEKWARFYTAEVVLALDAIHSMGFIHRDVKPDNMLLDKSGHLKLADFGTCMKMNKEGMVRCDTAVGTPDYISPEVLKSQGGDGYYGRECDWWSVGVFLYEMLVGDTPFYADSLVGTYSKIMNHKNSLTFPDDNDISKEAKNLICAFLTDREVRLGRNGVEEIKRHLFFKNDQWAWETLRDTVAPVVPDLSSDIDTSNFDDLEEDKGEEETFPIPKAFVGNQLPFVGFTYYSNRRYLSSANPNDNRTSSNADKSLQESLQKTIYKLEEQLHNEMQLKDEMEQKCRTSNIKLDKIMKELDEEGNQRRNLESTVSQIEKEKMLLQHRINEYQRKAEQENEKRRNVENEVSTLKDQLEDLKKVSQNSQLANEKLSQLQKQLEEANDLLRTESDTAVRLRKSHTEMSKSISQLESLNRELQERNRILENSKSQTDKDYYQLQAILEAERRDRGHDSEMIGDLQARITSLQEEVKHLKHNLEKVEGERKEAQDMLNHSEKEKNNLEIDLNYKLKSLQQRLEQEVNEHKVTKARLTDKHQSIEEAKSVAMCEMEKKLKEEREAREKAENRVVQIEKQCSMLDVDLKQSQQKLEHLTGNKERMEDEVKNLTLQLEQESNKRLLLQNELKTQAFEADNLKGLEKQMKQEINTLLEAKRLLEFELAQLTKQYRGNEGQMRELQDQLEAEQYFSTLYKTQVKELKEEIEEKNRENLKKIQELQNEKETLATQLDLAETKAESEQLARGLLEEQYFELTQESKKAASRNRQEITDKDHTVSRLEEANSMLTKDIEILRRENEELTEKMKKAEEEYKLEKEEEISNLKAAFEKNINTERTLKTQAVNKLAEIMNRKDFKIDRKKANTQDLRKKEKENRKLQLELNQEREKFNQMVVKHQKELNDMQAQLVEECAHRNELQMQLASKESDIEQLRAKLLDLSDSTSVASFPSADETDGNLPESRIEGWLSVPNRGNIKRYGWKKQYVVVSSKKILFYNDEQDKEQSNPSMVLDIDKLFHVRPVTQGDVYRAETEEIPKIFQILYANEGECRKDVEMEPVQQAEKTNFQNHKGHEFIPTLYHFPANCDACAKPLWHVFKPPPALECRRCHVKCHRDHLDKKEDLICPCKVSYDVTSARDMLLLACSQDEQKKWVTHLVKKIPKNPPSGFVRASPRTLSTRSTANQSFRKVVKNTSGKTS
T1 sequence (Q08499 303-809 limits assumed): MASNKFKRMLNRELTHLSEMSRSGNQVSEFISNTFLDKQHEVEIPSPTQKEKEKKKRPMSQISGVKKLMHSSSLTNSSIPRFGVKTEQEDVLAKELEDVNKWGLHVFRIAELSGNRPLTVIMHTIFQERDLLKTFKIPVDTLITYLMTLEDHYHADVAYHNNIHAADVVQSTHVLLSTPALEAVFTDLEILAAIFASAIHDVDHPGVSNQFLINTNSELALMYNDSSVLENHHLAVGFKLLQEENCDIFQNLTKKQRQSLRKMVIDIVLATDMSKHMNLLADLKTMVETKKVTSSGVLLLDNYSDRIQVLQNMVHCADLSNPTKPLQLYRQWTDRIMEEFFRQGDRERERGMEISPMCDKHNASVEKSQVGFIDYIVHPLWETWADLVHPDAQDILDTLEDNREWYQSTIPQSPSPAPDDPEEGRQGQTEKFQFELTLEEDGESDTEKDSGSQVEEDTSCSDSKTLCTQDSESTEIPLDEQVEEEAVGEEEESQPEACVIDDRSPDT
T3 sequence (P06213 28-1382): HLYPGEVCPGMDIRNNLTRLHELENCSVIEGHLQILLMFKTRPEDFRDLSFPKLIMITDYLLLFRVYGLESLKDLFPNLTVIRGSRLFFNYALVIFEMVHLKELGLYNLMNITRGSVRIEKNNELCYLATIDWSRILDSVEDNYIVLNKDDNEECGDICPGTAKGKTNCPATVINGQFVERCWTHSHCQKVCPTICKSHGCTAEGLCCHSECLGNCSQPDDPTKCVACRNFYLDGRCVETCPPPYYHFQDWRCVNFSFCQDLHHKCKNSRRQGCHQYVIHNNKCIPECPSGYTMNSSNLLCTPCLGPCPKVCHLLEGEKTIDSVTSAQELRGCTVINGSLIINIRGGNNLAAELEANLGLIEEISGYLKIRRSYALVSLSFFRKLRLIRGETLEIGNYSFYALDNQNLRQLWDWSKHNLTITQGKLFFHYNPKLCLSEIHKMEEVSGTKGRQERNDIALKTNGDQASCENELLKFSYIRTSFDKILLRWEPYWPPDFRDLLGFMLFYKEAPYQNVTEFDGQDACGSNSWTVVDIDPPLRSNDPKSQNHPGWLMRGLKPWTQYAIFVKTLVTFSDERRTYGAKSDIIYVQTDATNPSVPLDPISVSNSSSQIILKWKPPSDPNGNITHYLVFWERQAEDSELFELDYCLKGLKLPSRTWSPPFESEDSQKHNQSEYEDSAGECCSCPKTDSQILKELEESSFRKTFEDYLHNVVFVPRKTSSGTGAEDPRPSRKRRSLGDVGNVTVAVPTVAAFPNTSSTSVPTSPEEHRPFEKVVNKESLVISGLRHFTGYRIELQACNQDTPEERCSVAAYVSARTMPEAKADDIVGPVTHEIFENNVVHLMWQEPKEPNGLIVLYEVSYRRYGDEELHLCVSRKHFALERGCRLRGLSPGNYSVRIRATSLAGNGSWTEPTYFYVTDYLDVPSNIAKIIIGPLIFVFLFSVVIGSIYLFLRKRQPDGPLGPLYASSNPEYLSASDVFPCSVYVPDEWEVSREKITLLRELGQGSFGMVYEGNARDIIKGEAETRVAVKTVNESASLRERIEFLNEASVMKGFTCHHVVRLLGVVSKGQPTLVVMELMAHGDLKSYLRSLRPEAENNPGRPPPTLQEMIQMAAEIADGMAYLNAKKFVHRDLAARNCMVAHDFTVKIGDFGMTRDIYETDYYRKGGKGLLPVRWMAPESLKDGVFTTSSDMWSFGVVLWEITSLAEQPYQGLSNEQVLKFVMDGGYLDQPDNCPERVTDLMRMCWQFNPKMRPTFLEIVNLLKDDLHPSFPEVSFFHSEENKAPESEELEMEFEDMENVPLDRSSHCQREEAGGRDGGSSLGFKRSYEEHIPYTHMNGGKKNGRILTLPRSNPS
T6 sequence (P06239 whole entry): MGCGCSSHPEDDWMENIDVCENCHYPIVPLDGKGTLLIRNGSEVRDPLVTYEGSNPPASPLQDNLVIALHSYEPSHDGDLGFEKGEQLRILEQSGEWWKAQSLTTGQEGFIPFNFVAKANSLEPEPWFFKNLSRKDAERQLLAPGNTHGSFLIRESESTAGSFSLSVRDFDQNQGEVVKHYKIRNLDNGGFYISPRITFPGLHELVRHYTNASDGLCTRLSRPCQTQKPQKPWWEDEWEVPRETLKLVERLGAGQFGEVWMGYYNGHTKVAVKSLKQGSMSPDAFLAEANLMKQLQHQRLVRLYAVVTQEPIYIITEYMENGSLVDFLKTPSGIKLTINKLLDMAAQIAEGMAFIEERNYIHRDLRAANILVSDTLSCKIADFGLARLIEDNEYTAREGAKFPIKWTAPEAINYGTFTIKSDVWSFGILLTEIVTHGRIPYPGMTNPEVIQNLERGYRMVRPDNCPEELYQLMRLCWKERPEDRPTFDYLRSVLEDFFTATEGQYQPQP

For O=S(=O)(NCc1ccc2c(c1)OCO2)c1ccc(Cc2ccc(S(=O)(=O)NCc3ccc4c(c3)OCO4)cc2)cc1 [M1i-124], the “Annexin (% positivity)” value (BJAB cells; BJAB, individual replicates) was 34.8% and 31.55% and 33.15%, the “apoptosis of BJAB cells” value (BJAB cells; result in words) was “either no or minimal apoptotic response” and the IC50 (PDE4) was over 10 µM. For the same compound, the IC50 (hERG) was over 10 µM, the IC50 (INSR) was over 10 µM and the IC50 (COX1/2) was over 10 µM. The IC50 (ROCK1) was over 10 µM, the IC50 (VEGFR2) was over 10 µM and the IC50 (LCK) was over 10 µM. For the same compound, the “OCI-Ly3 xenograft tumor growth” value (OCI-Ly3 xenografts) was “significant decrease in tumor growth”, the IC50 (OCI-Ly3 cells; Homo sapiens, OCI-Ly3 cells, read-out: 50% cytotoxic concentration) was about 0.5 µM and the “Percent viability (ATP level)” value (OCI-Ly3 cells; OCI-Ly3, M1i-124 (µM) 0.02) was 93.0259% and 81.697% and 95.3842% and 87.3232%. The “Percent viability (ATP level)” value (OCI-Ly3 cells; OCI-Ly3, M1i-124 (µM) 0.05) was 107.435% and 78.839% and 101.939% and 104.596%, the “Percent viability (ATP level)” value (OCI-Ly3 cells; OCI-Ly3, M1i-124 (µM) 0.1) was 97.8481% and 79.4097% and 92.5817% and 82.7797% and the “Percent viability (ATP level)” value (OCI-Ly3 cells; OCI-Ly3, M1i-124 (µM) 0.2) was 93.5879% and 72.4634% and 88.6927% and 76.6947%. For the same compound, the “Percent viability (ATP level)” value (OCI-Ly3 cells; OCI-Ly3, M1i-124 (µM) 5) was 38.3426% and 24.1881% and 19.3497% and 28.4648% and the “viability of OCI-Ly3 cells” value (OCI-Ly3 cells; result in words) was “dose-dependent decrease in viability”.
